Earlier results as cited in patent publication US20050203299A1 (priority 2003, published 2005).

Columns and labels:
[1] = target: serotonin reuptake site (Homo sapiens, UniProt P31645)
[2] = test system: cholinergic muscarinic receptors
[3] = target: serotonin 5-HT2A receptor (Homo sapiens, UniProt P28223)
[4] = target: T1, serotonin 5-HT1A receptor (Homo sapiens, UniProt P08908)
T1 sequence (P08908 1-422): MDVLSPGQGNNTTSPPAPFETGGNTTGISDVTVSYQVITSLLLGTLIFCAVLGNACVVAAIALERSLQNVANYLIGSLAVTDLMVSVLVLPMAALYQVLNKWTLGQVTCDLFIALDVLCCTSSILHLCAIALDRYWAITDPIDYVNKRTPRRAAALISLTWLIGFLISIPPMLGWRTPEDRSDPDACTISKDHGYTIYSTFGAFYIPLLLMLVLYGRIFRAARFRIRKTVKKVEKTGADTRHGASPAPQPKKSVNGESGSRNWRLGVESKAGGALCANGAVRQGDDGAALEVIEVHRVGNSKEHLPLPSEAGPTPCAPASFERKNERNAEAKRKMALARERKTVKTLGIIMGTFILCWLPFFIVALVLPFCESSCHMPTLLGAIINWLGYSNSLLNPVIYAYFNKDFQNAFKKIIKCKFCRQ

[5] = test system: α1-adrenergic receptor
[6] = target: histamine H1 receptor (Homo sapiens, UniProt P35367)
Chain of histamine H1 receptor (P35367 whole entry): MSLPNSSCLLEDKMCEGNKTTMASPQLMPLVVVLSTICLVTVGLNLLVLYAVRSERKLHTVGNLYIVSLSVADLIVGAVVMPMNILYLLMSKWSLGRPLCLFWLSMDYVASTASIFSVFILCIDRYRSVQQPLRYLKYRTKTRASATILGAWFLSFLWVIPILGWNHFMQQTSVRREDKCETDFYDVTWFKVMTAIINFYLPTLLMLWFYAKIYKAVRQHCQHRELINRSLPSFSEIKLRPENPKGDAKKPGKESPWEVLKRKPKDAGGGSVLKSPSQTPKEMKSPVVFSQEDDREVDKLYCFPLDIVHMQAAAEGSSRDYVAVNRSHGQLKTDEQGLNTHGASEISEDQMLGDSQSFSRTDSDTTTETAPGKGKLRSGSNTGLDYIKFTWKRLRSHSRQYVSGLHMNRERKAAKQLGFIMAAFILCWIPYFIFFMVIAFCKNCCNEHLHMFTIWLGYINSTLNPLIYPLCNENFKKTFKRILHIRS

[7] = target: T2, serotonin 5-HT2C receptor (Homo sapiens, UniProt P28335)
T2 sequence (P28335 33-458): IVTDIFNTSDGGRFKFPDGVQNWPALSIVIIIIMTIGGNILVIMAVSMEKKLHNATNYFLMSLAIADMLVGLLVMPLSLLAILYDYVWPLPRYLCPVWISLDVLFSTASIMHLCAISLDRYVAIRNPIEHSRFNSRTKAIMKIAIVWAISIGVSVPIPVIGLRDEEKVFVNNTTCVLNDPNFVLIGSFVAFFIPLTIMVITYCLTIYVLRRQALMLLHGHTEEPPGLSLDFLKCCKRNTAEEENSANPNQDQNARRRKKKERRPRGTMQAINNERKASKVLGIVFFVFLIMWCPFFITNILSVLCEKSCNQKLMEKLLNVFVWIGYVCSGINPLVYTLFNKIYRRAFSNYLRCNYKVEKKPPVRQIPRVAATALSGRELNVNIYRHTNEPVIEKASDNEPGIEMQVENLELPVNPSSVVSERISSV

[8] = prepared by recrystallization from ethanol or by heating aripiprazole hydrate at 80° C.; according to WO 03/26659

Chain of serotonin 5-HT2A receptor (P28223 whole entry): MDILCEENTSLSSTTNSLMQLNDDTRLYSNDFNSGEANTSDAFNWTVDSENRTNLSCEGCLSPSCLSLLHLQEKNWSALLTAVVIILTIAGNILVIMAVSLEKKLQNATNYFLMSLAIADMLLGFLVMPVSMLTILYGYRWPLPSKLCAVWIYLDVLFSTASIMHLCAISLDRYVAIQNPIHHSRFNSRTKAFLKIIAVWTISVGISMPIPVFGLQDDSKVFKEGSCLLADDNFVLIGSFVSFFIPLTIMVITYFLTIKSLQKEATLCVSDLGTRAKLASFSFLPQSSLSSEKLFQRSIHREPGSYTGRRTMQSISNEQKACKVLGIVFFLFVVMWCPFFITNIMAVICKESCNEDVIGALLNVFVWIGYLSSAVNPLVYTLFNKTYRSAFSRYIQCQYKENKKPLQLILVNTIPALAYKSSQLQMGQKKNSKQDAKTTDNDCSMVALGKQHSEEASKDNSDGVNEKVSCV
Chain of serotonin reuptake site (P31645 whole entry): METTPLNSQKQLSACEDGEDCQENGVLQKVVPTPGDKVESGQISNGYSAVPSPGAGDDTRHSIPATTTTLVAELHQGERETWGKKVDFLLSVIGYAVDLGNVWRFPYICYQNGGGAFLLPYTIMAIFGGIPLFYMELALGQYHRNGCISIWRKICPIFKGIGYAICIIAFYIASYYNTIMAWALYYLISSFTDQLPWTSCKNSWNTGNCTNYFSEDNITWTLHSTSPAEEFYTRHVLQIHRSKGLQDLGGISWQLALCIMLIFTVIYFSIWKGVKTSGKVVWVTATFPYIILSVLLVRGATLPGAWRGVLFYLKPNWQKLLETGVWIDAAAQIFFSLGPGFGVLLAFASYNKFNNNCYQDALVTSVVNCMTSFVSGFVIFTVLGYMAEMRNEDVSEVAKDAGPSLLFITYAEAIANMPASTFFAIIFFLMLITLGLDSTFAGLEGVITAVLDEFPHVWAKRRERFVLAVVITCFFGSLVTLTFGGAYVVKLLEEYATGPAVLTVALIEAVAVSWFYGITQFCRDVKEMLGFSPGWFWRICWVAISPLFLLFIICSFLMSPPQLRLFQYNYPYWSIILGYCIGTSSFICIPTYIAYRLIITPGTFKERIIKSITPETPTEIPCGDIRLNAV

Compound	affinity for serotonin reuptake site [1]	affinity for cholinergic muscarinic receptors [2]	affinity for serotonin 5-HT2A receptor [3]	affinity for serotonin 5-HT1A receptor [4]	affinity for α1-adrenergic receptor [5]	affinity for histamine H1 receptor [6]	affinity for serotonin 5-HT2C receptor [7]	hygroscopicity [8]
O=C1CCc2ccc(OCCCCN3CCN(c4cccc(Cl)c4Cl)CC3)cc2N1 [Aripiprazole]	moderate affinity	no appreciable affinity	high affinity	high affinity	moderate affinity	moderate affinity	moderate affinity	
O=C1CCc2ccc(OCCCCN3CCN(c4cccc(Cl)c4Cl)CC3)cc2N1 [anhydride aripiprazole, aripiprazole]								significantly hygroscopic
